# Measured values published in PubChem BioAssay AID256 (DTP/NCI, 2004).
# Values joined by “and” are separate entries in the source; they are usually repeats but may differ in a detail not shown here. Identical values can stand only once. Inconclusive results and toxic doses are left out.
# System: CD2F1 mice, L1210 leukemia ip, survival T/C
# Test: NCI In Vivo Anticancer Drug Screen. Data for tumor model L1210 Leukemia (intraperitoneal) in CD2F1 (CDF1) mice
# Details: higher = longer survival
# Outline: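 Antitumor effect is scored in animals hosting a serially transplanted tumor. Values compare compound-dosed animals against vehicle-only controls as a simple quotient.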
# [1] = endpoint: mean survival time, dose: 25.0 mg/kg/injection, schedule: Q04DX002 (ip), vehicle: saline with Tween-80
# [2] = endpoint: mean survival time, dose: 50.0 mg/kg/injection, schedule: Q04DX002 (ip), vehicle: saline with Tween-80
# [3] = endpoint: mean survival time, dose: 100.0 mg/kg/injection, schedule: Q04DX002 (ip), vehicle: saline with Tween-80
# [4] = endpoint: mean survival time, dose: 100.0 mg/kg/injection, schedule: Q04DX003 (ip), vehicle: saline with Tween-80
# [5] = endpoint: mean survival time, dose: 200.0 mg/kg/injection, schedule: Q04DX003 (ip), vehicle: saline with Tween-80
# [6] = endpoint: mean survival time, dose: 100.0 mg/kg/injection, schedule: Q01DX009 (ip), vehicle: saline with Tween-80
# [7] = endpoint: mean survival time, dose: 200.0 mg/kg/injection, schedule: Q01DX009 (ip), vehicle: saline with Tween-80
# [8] = endpoint: mean survival time, dose: 400.0 mg/kg/injection, schedule: Q01DX009 (ip), vehicle: saline with Tween-80
# [9] = endpoint: mean survival time, dose: 400.0 mg/kg/injection, schedule: Q04DX003 (ip), vehicle: saline with Tween-80
smiles,measurement,setting,value
CCCOC(=O)COc1ccc(F)cc1F,T/C,[1],103 % of control
same,T/C,[2],100 % of control
same,T/C,[3],92 % of control and 95 % of control
same,T/C,"endpoint: mean survival time, dose: 400.0 mg/kg/injection, schedule: Q04DX002 (ip), vehicle: saline with Tween-80",95 % of control
CSc1ccc(OC(=O)Nc2ccccc2F)cc1,T/C,[4],101 % of control
same,T/C,[5],112 % of control
CCC(NC(=O)OCc1ccccc1)C(=O)O (stereo not drawn),T/C,[6],88 % of control
same,T/C,[7],90 % of control
same,T/C,[8],90 % of control
CC(=O)Nc1cc2c3c(c1)CCN3CCC2,T/C,"endpoint: mean survival time, dose: 3.13 mg/kg/injection, schedule: Q01DX001 (ip), vehicle: saline",100 % of control
same,T/C,"endpoint: mean survival time, dose: 6.25 mg/kg/injection, schedule: Q01DX001 (ip), vehicle: saline",113 % of control
same,T/C,"endpoint: mean survival time, dose: 12.5 mg/kg/injection, schedule: Q01DX001 (ip), vehicle: saline",112 % of control
CC(=O)N1CCN(C(C)=O)c2ccccc21,T/C,[4],101 % of control
same,T/C,[5],101 % of control
same,T/C,[9],93 % of control
N=C(N)SCc1c(Cl)c(Cl)c(Cl)c(Cl)c1Cl,T/C,[1],103 % of control
same,T/C,[2],98 % of control
same,T/C,[3],98 % of control
CC(=O)OCC1OC(n2ccc(O)cc2=O)C(O)C1O (stereo not drawn),T/C,"endpoint: median survival time, dose: 44.0 mg/kg/injection, schedule: Q01DX009 (ip), vehicle: saline + alcohol",160 % of control
same,T/C,"endpoint: median survival time, dose: 67.0 mg/kg/injection, schedule: Q01DX009 (ip), vehicle: saline + alcohol",169 % of control
same,T/C,"endpoint: median survival time, dose: 100.0 mg/kg/injection, schedule: Q01DX009 (ip), vehicle: saline + alcohol",172 % of control
same,T/C,"endpoint: median survival time, dose: 150.0 mg/kg/injection, schedule: Q01DX009 (ip), vehicle: saline + alcohol",174 % of control
O=P(N1CCCCCC1)(N1CCCCCC1)N1CCCCCC1.O=[N+]([O-])O.O=[N+]([O-])O.[O]=[U]=[O],T/C,"endpoint: mean survival time, dose: 6.25 mg/kg/injection, schedule: Q04DX003 (ip), vehicle: Klucel (hydroxypropylcellulose) (HPC)",109 % of control
Cc1cc(NC(=O)NCCOc2ccc(N3C(N)=NC(N)=NC3(C)C)cc2Cl)ccc1S(=O)(=O)F,T/C,"endpoint: mean survival time, dose: 12.5 mg/kg/injection, schedule: Q04DX003 (ip), vehicle: saline with Tween-80",107 % of control
same,T/C,"endpoint: mean survival time, dose: 25.0 mg/kg/injection, schedule: Q04DX003 (ip), vehicle: saline with Tween-80",102 % of control
same,T/C,"endpoint: mean survival time, dose: 50.0 mg/kg/injection, schedule: Q04DX003 (ip), vehicle: saline with Tween-80",91 % of control
N#CCCCN1CCCCCC1,T/C,[4],97 % of control
CC(=O)c1ccc2c3ccccc3n(C)c2c1,T/C,"endpoint: mean survival time, dose: 50.0 mg/kg/injection, schedule: Q01DX009 (ip), vehicle: Klucel (hydroxypropylcellulose) (HPC)",93 % of control
same,T/C,"endpoint: mean survival time, dose: 100.0 mg/kg/injection, schedule: Q01DX009 (ip), vehicle: Klucel (hydroxypropylcellulose) (HPC)",93 % of control
same,T/C,"endpoint: mean survival time, dose: 200.0 mg/kg/injection, schedule: Q01DX009 (ip), vehicle: Klucel (hydroxypropylcellulose) (HPC)",93 % of control
C#CCN(CC#C)C(=O)CCCCCCCCC=C,T/C,[6],90 % of control
same,T/C,[4],107 % of control
same,T/C,[7],93 % of control
same,T/C,[5],92 % of control
same,T/C,[8],93 % of control
same,T/C,[9],98 % of control
O=C(O)C(C(=O)O)C1Cc2cccc3cccc1c23 (stereo not drawn),T/C,"endpoint: mean survival time, dose: 100.0 mg/kg/injection, schedule: Q01DX001 (ip), vehicle: saline with Tween-80",94 % of control
O=CNc1ccc(O)cc1,T/C,[4],93 % of control
same,T/C,[5],101 % of control
same,T/C,[9],103 % of control
COc1ccc(C(=O)NNC(=O)c2ccc(OC)cc2)cc1,T/C,"endpoint: mean survival time, dose: 100.0 mg/kg/injection, schedule: Q01DX001 (ip), vehicle: Klucel (hydroxypropylcellulose) (HPC)",108 % of control
same,T/C,"endpoint: mean survival time, dose: 200.0 mg/kg/injection, schedule: Q01DX001 (ip), vehicle: Klucel (hydroxypropylcellulose) (HPC)",104 % of control
same,T/C,"endpoint: mean survival time, dose: 400.0 mg/kg/injection, schedule: Q01DX001 (ip), vehicle: Klucel (hydroxypropylcellulose) (HPC)",100 % of control
